The values that follow come from US9056111B1, “Selective efflux inhibitors and related pharmaceutical compositions and methods of treatment” (STC.UNM, priority 2011, dated 2015).

What is called IC50 is the concentration that inhibits the measured activity by half.

Read-outs that look alike come from different tables or passages of the source.

One data set addresses ABCB1 (Homo sapiens, UniProt P08183). Description: JC-1 efflux inhibition dose response, flow cytometry, Jurkat-DNR cells. The note with it: for IC50: Jurkat-DNR cells over-expressing ABCB1, averages of two to four replicates. How it is done: (§1) The HyperCyt® high throughput flow cytometry platform (IntelliCyt™, Albuquerque, N. Mex.) was used to sequentially sample cells from 384-well microplates (2 μL/sample) for flow cytometer presentation at a rate of 40 samples per minute.^62-63 Flow cytometric analysis was performed on a CyAn™ flow cytometer (Beckman-Coulter, Fullerton, Calif.). The resulting time-gated data files were analyzed with HyperView® software to determine compound activity in each well. Inhibition response curves were fitted by Prism® software (GraphPad Software, Inc., San Diego, Calif.) using nonlinear least-squares regression in a sigmoidal dose response model with variable slope, also known as the four-parameter logistic equation. This type of time-gated flow cytometric data analysis was described in detail for a previous ABC transporter screen from our group.^56
The assay provider's ABCB1 over-expressing Jurkat-DNR cell line is used for confirmatory follow up instead of the CCRF-Adr cells. Each cell line (Jurkat-DNR and Ig-MXP3) is run separately against all compounds (no differential cell staining) in dose response. The assay is conducted in 384-well format in a total volume of 15.1 μL. Cells and reagents are added sequentially as follows: 1) PBS buffer (5 μL/well); 2) test compound (100 nL/well); 3) drug-resistant cells (10 μL/well) pre-stained with the JC-1 substrate at 1 μM. Final in-well concentrations of test compound range from 50 μM to 69 nM over an 18 point dose response and the cell concentration is 1×10^6 cells/mL. Nicardipine (50 μM) is added to each plate as a pan-inhibition positive control. The plate is rotated end-over-end at 4 RPM and 25° C. for 30 minutes and then cell samples are analyzed and flow cytometric data of light scatter and fluorescence emission at 530+/−20 nm (488 nm excitation, FL1) are collected.
Each cell line (Jurkat-DNR and Ig-MXP3) was run separately against all compounds (no differential cell staining) in dose-response. The protocol differed from the single point screen as describe here. Cells and reagents were added sequentially as follows: 1) PBS buffer (5 μL per well); 2) test compound (100 nL per well); 3) drug-resistant cells (10 μL, per well) pre-exposed to the JC-1 substrate at 1 μM just prior to the well addition. Final in-well concentrations of test compound ranged from 50 μM to 69 nM over an 18 point dose-response and the cell concentration was 1×10^6 cells mL^−1.
On the technique in general: In flow cytometry, cells or beads pass a laser one at a time.

A further data set addresses T1, ABCB1 / ABCG2 (Homo sapiens, UniProt Q9UNQ0).
T1 sequence (Q9UNQ0 1-655): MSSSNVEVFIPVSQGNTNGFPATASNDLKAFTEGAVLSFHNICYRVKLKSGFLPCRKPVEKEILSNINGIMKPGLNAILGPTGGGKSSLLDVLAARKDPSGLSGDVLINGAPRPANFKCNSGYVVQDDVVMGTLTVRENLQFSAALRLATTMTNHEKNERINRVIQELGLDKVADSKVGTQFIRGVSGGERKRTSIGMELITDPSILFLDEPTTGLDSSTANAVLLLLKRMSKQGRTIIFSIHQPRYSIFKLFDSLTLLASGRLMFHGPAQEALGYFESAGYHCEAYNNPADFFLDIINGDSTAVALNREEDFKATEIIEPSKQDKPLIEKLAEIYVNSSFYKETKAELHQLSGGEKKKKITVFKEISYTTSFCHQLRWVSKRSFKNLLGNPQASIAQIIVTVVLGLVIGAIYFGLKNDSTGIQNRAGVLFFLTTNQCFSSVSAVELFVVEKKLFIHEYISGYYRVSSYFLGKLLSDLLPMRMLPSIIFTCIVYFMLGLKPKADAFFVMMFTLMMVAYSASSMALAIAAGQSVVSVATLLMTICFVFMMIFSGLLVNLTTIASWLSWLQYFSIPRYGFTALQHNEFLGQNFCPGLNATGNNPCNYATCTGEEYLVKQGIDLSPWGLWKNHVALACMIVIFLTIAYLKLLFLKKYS
The data set can be described thus: JC-1 efflux inhibition dose response, flow cytometry, Ig-MXP3 cells. The note with it: human, probe JC-1 (1 µM), ~Fold G2 Selective (B1/G2), quotient of average ABCB1 IC50 and average ABCG2 IC50, efflux assay. How it is done: as §1
(§2) The assay provider's ABCB1 over-expressing Jurkat-DNR cell line is used for confirmatory follow up instead of the CCRF-Adr cells. Each cell line (Jurkat-DNR and Ig-MXP3) is run separately against all compounds (no differential cell staining) in dose response. The assay is conducted in 384-well format in a total volume of 15.1 μL. Cells and reagents are added sequentially as follows: 1) PBS buffer (5 μL/well); 2) test compound (100 nL/well); 3) drug-resistant cells (10 μL/well) pre-stained with the JC-1 substrate at 1 μM. […] Nicardipine (50 μM) is added to each plate as a pan-inhibition positive control.
(§3) Each cell line (Jurkat-DNR and Ig-MXP3) was run separately against all compounds (no differential cell staining) in dose-response. The protocol differed from the single point screen as describe here. Cells and reagents were added sequentially as follows: 1) PBS buffer (5 μL per well); 2) test compound (100 nL per well); 3) drug-resistant cells (10 μL, per well) pre-exposed to the JC-1 substrate at 1 μM just prior to the well addition.

The target of the next data set is T2, ABCG2 (Homo sapiens, UniProt Q9UNQ0).
T2 sequence (Q9UNQ0 1-655): T1 sequence (Q9UNQ0 1-655)
Described as above. The note with it: for ~Fold G2 Selective (B1/G2): quotient of average ABCB1 IC50 and average ABCG2 IC50, efflux assay. How it is done: as §1, §2, §3

The mark [1] stands for this setting: IC50 ABCB1 (efflux inhibition of JC-1 substrate).
Setting [2] is: read-out: IC50 ABCB1 (efflux inhibition of JC-1 substrate).
[3] abbreviates: read-out: IC50 ABCG2 (efflux inhibition of JC-1 substrate), Ig-MXP3 cells over-expressing ABCG2, averages of two to four replicates.

Sequence of ABCB1 (P08183 whole entry): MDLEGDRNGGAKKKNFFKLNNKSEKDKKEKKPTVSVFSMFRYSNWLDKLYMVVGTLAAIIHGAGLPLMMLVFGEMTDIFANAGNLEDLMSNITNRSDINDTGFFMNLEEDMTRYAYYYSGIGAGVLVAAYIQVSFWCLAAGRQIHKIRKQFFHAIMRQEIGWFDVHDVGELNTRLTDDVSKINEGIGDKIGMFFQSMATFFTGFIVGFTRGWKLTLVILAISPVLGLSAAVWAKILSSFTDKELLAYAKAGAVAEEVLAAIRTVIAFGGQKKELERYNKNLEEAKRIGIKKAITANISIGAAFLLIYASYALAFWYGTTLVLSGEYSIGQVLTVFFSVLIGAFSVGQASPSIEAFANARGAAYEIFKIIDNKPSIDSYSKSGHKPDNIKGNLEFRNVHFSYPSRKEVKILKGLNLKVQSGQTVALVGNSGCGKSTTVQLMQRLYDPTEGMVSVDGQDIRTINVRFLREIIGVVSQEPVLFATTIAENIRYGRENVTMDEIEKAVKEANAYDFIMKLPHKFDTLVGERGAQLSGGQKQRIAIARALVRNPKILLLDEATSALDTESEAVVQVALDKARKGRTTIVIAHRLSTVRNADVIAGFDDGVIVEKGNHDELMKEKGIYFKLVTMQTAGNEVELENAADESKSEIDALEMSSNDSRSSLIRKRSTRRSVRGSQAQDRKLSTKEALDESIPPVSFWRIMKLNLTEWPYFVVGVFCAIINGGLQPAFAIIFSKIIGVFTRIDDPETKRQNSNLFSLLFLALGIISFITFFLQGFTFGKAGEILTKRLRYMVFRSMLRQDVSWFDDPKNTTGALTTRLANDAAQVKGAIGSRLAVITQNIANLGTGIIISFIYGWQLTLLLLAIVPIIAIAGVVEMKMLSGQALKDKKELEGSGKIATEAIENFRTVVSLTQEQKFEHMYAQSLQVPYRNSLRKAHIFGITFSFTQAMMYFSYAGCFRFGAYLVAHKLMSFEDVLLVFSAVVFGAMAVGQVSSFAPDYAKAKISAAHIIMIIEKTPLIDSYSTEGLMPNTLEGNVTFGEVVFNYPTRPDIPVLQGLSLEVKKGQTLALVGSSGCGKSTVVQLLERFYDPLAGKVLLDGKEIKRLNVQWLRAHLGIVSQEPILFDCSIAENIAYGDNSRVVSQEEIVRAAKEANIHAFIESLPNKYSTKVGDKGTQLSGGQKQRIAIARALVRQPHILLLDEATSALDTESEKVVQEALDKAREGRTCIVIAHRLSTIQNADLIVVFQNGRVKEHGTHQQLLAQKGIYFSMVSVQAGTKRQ

Turning to `Cc1cc(N2CCN(C(=O)c3ccco3)CC2)n2nc(-c3cccc(Cl)c3)cc2n1` [Compound 10], the IC50 against ABCB1 (setting [1]) turned out to be 5.88 ± 1.17 µM; against ABCG2, 2.78 ± 0.82 µM. In addition, the selectivity ratio at 30 min at ABCB1 / ABCG2 amounted to 2.1.
For `CC(=O)N1CCN(c2cc(-c3ccccc3)nc3cc(-c4cccc(Cl)c4)nn23)CC1` [Compound 23] the same measures were 5.67 ± 2.21 µM, 6.07 ± 0.73 µM and 0.9.
For `CNCCCN(C)c1cc(-c2ccco2)nc2cc(-c3ccccc3)nn12` [Compound 79] the same measures were 11.9 ± 8.94 µM, 25.5 ± 13.4 µM and 0.5.
`Cc1nc2cc(-c3ccccc3)nn2c(N2CCN(C(=O)c3ccoc3)CC2)c1C` [Compound 89]: the half-inhibitory concentration (IC50) against ABCB1 (setting [1]) turned out to be 1.63 ± 0.59 µM; at ABCG2, 2.18 ± 1.93 µM. Besides, the selectivity ratio at 30 min at ABCB1 / ABCG2 is 0.7.
Regarding `O=C(c1ccccc1)N1CCN(c2cc(-c3ccccc3)nc3cc(-c4ccc(F)cc4)nn23)CC1` [Compound 43], the values for the IC50 against ABCB1 (setting [1]) and at ABCG2 were 3.99 ± 2.31 µM and 2.03 ± 0.11 µM, respectively. On ABCB1 / ABCG2, the selectivity ratio at 30 min stood at 2.
With `CC(C)(C)c1cc(N2CCN(C(=O)c3ccoc3)CC2)n2nc(-c3ccccc3)cc2n1` [Compound 49], the figures for the IC50 at ABCB1 (setting [1]) and at ABCG2 were 5.62 µM and 11.5 µM, respectively. Besides, at ABCB1 / ABCG2, the selectivity ratio at 30 min is 0.5.
For `Cc1cc(N2CCN(C(=O)c3ccoc3)CC2)n2nc(-c3ccccc3)cc2n1` [Compound 63], in that order: 15.8 ± 3.33 µM, 7.27 ± 3.01 µM and 2.2.
With `O=C(c1coc2ccccc12)N1CCN(c2cc(-c3ccco3)nc3cc(-c4ccccc4)nn23)CC1` [Compound 73], the IC50 was determined as 8.83 ± 6.63 µM at ABCB1 (setting [2]) and 2.84 ± 0.96 µM on ABCG2 (setting [3]). For the same compound, at ABCG2, the “~Fold G2 Selective (B1/G2)” value is given as 3.1 fold.
In the case of `O=C(Nc1ccccc1)C1CCN(c2cc(-c3ccco3)nc3cc(-c4ccccc4)nn23)CC1` [Compound 84], the half-maximal inhibitory concentration (IC50) against ABCB1 (setting [1]) is > 50 µM; against ABCG2, 8.03 ± 2.18 µM.
`O=C(c1ccoc1)N1CCN(c2cc(-c3cccs3)nc3cc(-c4ccccc4)nn23)CC1` [Compound 64]: the IC50 at ABCB1 (setting [1]) came out at 3.46 µM; against ABCG2 it was 1.64 ± 0.03 µM. The selectivity ratio at 30 min on ABCB1 / ABCG2 amounted to 2.1.
For `O=C(c1ccoc1)N1CCN(c2cc(-c3ccccc3F)nc3cc(-c4ccccc4)nn23)CC1` [Compound 46] the same measures were 5.61 µM, 0.56 µM and 10.
For `COc1ccc(C(=O)N2CCN(c3cc(-c4ccccc4)nc4cc(-c5cccc(Cl)c5)nn34)CC2)cc1` [Compound 16] the same measures were 2.89 ± 0.55 µM, 2.82 ± 1.91 µM and 1.
Consider `O=S(=O)(c1ccccc1)N1CCN(c2cc(-c3ccccc3)nc3cc(-c4cccc(Cl)c4)nn23)CC1` [Compound 25], for which the concentration for half-maximal inhibition (IC50) against ABCB1 (setting [1]) and at ABCG2 was > 50 µM throughout.
With `O=C1CN(c2cc(-c3ccco3)nc3cc(-c4ccccc4)nn23)CCN1c1ccccc1` [Compound 83], the concentration for half-maximal inhibition (IC50) on ABCB1 (setting [1]) was 4.06 ± 1.78 µM; on ABCG2, 1.64 ± 0.52 µM. In addition, the selectivity ratio at 30 min on ABCB1 / ABCG2 was 2.5.
For `COc1cccc(-c2cc3nc(-c4ccccc4)cc(N4CCN(C(=O)c5ccoc5)CC4)n3n2)c1` [Compound 35] the same measures were 2.26 ± 0.83 µM, 1.14 ± 0.59 µM and 2.
For `O=C(c1ccccc1Cl)N1CCN(c2cc(-c3ccccc3)nc3cc(-c4cccc(Cl)c4)nn23)CC1` [Compound 17] the same measures were 1.85 ± 0.75 µM, 1.31 ± 0.23 µM and 1.4.
For `O=C(c1ccccc1)N1CCN(c2cc(-c3ccccc3)nc3cc(-c4cccc(Cl)c4)nn23)CC1` [Compound 13], in that order: 3.42 ± 1.64 µM, 1.45 ± 0.59 µM and 2.4.
Turning to `O=C(c1ccccc1)N1CCN(c2cc(-c3ccco3)nc3cc(-c4ccccc4)nn23)CC1` [Compound 69], the figures for the IC50 against ABCB1 (setting [1]) and on ABCG2 were 5.56 ± 1.25 µM and 1.62 ± 1.27 µM, respectively. Besides, the selectivity ratio at 30 min at ABCB1 / ABCG2 amounted to 3.4.
For `CN(CCN(C)c1cc(-c2ccco2)nc2cc(-c3ccccc3)nn12)C(=O)c1ccoc1` [Compound 80], in that order: 17.5 ± 5.88 µM, 13 ± 7.88 µM and 1.3.
As to `CN(C)CCN(C)c1cc(-c2ccco2)nc2cc(-c3ccccc3)nn12` [Compound 78], the IC50 was > 50 µM against ABCB1 (setting [1]) and 8.88 ± 2.82 µM against ABCG2.
Regarding `Cc1coc(C)c1C(=O)N1CCN(c2cc(-c3ccco3)nc3cc(-c4ccccc4)nn23)CC1` [Compound 71], the IC50 on ABCB1 (setting [2]) stood at 7.32 ± 2.52 µM; on ABCG2 (setting [3]), 3.68 ± 2.21 µM. Besides, the “~Fold G2 Selective (B1/G2)” value on ABCG2 is recorded as 2.0 fold.
For `O=C(c1ccsc1)N1CCN(c2cc(-c3ccco3)nc3cc(-c4ccccc4)nn23)CC1` [Compound 68], in that order: 4.93 ± 1.76 µM, 1.38 ± 1.04 µM and 3.6 fold.
For `COc1ccccc1-c1cc2nc(-c3ccccc3)cc(N3CCN(C(=O)c4ccccc4)CC3)n2n1` [Compound 41] the same measures were 2.31 ± 0.79 µM, 0.76 ± 0.06 µM and 3.0 fold.
Take `COc1ccc2c3c([nH]c2c1)[C@H](C=C(C)C)N1C(=O)[C@@H]2CCCN2C(=O)[C@@H]1C3` [Compound 3, reference compound]: on ABCB1 (JC-1 efflux, Jurkat-DNR), the “efflux inhibition activity ABCB1” value is “no activity”. Further, at ABCG2 (JC-1 efflux, Ig-MXP3), the “efflux inhibition activity ABCG2” value is on record as “no activity”.
Turning to `Cc1occc1C(=O)N1CCN(c2cc(-c3ccco3)nc3cc(-c4ccccc4)nn23)CC1` [Compound 70], the IC50 at ABCB1 (setting [2]) was 11.9 ± 7.4 µM; at ABCG2 (setting [3]), 2.33 ± 2.23 µM. For the same compound, the “~Fold G2 Selective (B1/G2)” value at ABCG2 was determined as 5.1 fold.
For `Cc1cc(C(=O)N2CCN(c3cc(-c4ccco4)nc4cc(-c5ccccc5)nn34)CC2)c(C)o1` [Compound 72] the same measures were 12 ± 6.11 µM, 3.37 ± 1.19 µM and 3.6 fold.
With `COc1ccccc1-c1cc2nc(-c3ccccc3)cc(N3CCN(C(=O)c4ccco4)CC3)n2n1` [Compound 37], the IC50 was determined as 3 ± 0.57 µM on ABCB1 (setting [2]) and 1.03 ± 0.17 µM on ABCG2 (setting [3]). At ABCG2, the “~Fold G2 Selective (B1/G2)” value stood at 2.9 fold.
